This is an account of results in patent US11266643B2, “Triaryl compounds for treatment of PD-L1 diseases” (CHEMOCENTRYX, INC., priority 2019, dated 2022).

SMILES strings stand for the structures. pIC50: −log10 of the molar value.

The target of the first test is human PD-L1 (Homo sapiens (Human), UniProt Q9NZQ7). The experiment in a line: Enzyme-Linked Immunosorbent Assay (ELISA), PD-1/PD-L1 binding. The settings on record: PD-1/PD-L1 ELISA, human PD-L1 coated plates, Table 1. An outline of the steps: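 Plates coated with […] human PD-L1 overnight at 4° C, blocked, then 1:5 serial compound dilutions added with human PD-1 […] 0.31 μg/mL for 1 h at 37° C. Bound PD-1 detected with streptavidin-HRP and TMB (20 min, 37° C); absorbance read at 450 nm after H2SO4 stop.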
human PD-L1, sequence (Q9NZQ7 19-239): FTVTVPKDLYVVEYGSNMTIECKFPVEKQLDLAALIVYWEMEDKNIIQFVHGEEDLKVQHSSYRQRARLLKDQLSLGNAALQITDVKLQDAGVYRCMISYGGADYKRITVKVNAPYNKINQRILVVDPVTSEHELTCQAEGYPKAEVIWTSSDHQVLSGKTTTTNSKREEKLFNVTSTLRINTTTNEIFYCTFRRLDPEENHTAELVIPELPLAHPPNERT
Background: In an ELISA, binding on a coated surface is turned into a signal by an enzyme label.
As a reminder, the pIC50 is −log10 of the IC50, conventionally taken in molar units. As for `COc1cc(-c2cccc(-c3cccc(NC(=O)c4ccc(C(=O)O)cn4)c3C)c2C)cc(F)c1CN` [Example 1.352], the pIC50 is 6.00 to 8.00.

For the compound `COC(=O)c1ccc(C(=O)Nc2cccc(-c3cccc(-c4cc(F)c(CN)c(OC)c4)c3C)c2C)nc1` [Example 1.353], the pIC50 was 6.00 to 8.00.

As for `COc1cc(-c2cccc(-c3cccc(NC(=O)c4ccccn4)c3C)c2C)cc(F)c1CN1CCC[C@@H](C(=O)O)C1` [Example 1.354], the pIC50 is 6.00 to 8.00.

Compound `COc1cc(-c2cccc(-c3cccc(NC(=O)c4ccccn4)c3C)c2C)cc(F)c1CN1CCC[C@H](C(=O)O)C1` [Example 1.355] gave a pIC50 of 6.00 to 8.00.

In turn, `COc1cc(-c2cccc(-c3cccc(NC(=O)c4ccccn4)c3C)c2C#N)cc(F)c1CN1CC(C(=O)O)C1` [Example 1.356] gave a pIC50 of 6.00 to 8.00.

As for `COc1cc(-c2cccc(-c3cccc(NC(=O)c4cnccn4)c3C)c2C)cc(F)c1CN1CC(C(=O)O)C1` [Example 1.357], the pIC50 was above 8.00.

For `COc1cc(-c2cccc(-c3cccc(NC(=O)c4ccccn4)c3C)c2C)cc(F)c1CN1CCC(C(=O)O)CC1` [Example 1.358], the pIC50 was 6.00 to 8.00.

For `COc1cc(-c2cccc(-c3cccc(NC(=O)c4ccc(F)cn4)c3C)c2C)cc(F)c1CN1CC(C(=O)O)C1` [Example 1.359], the pIC50 was 6.00 to 8.00.

In the case of `COc1cc(-c2cccc(-c3cccc(NC(=O)c4ccccn4)c3C)c2C)cc(F)c1CN1CC(C)(C(=O)O)C1` [Example 1.360], the pIC50 is above 8.00.

In turn, `COc1cc(-c2cccc(-c3cccc(NC(=O)c4ccccn4)c3C)c2C)cc(F)c1CN1CCC2(C1)NC(=O)NC2=O` (stereo not shown) [Example 1.362] had a pIC50 of 6.00 to 8.00.

The compound `COc1cc(-c2cccc(-c3cccc(NC(=O)C4CCCCO4)c3C)c2C)cc(F)c1CN` (stereo not shown) [Example 1.363] gave a pIC50 of 6.00 to 8.00.

Consider `COc1cc(-c2cccc(-c3cccc(NC(=O)c4ncc(C)cn4)c3C)c2C)cc(F)c1CN1CC(C(=O)O)C1` [Example 1.364], for which the pIC50 is 6.00 to 8.00.

The compound `COc1cc(-c2cccc(-c3cccc(NC(=O)c4ccccn4)c3C)c2Cl)cc(F)c1CN1CC(C(=O)O)C1` [Example 1.365] showed a pIC50 above 8.00.

Take `COc1cc(-c2cccc(-c3cccc(NC(=O)c4ccccn4)c3C)c2C)cc(F)c1CN1CC[C@@H](C(=O)O)C1` [Example 1.366]: the pIC50 was above 8.00.

As to `COc1cc(-c2cccc(-c3cccc(NC(=O)c4ccncn4)c3C)c2C)cc(F)c1CN1CC(C(=O)O)C1` [Example 1.367], the pIC50 was above 8.00.

Compound `COc1cc(-c2cccc(-c3cccc(NC(=O)c4ccccn4)c3C)c2C)cc(F)c1CN1CC[C@H](C(=O)O)C1` [Example 1.368] showed a pIC50 of 6.00 to 8.00.

`COc1cc(-c2cccc(-c3cccc(NC(=O)c4ccc(Cl)cn4)c3C)c2C)cc(F)c1CN1CC(C(=O)O)C1` [Example 1.369] gave a pIC50 of 6.00 to 8.00.

In the case of `COc1cc(-c2cccc(-c3cccc(NC(=O)c4ccccn4)c3F)c2C)cc(F)c1CN1CC(C(=O)O)C1` [Example 1.370], the pIC50 is 6.00 to 8.00.

Compound `COc1cc(-c2cccc(-c3cccc(NC(=O)c4ccc(C)cn4)c3C)c2C)cc(F)c1CN1CC(C(=O)O)C1` [Example 1.371] had a pIC50 above 8.00.

Consider `COc1cc(-c2cccc(-c3cccc(NC(=O)c4ccccn4)c3C)c2C)cc(F)c1CN1CCOC[C@@H]1CO` [Example 1.372], for which the pIC50 is 6.00 to 8.00.

`COc1cc(-c2cccc(-c3cccc(NC(=O)c4ccccn4)c3C)c2C)cc(F)c1CN1CCOC[C@H]1CO` [Example 1.373] had a pIC50 of 6.00 to 8.00.

On to `COc1cc(-c2cccc(-c3cccc(NC(=O)c4ccccn4)c3)c2C)cc(F)c1CN1CC(C(=O)O)C1` [Example 1.375], for which the pIC50 is 6.00 to 8.00.

In turn, `COc1cc(-c2cccc(-c3cccc(NC(=O)c4ccccn4)c3C)c2C)cc(F)c1CNC(CO)CO` [Example 1.376] showed a pIC50 of 6.00 to 8.00.

The compound `COc1cc(-c2cccc(-c3cccc(NC(=O)c4ccccn4)c3C)c2C)cc(F)c1CN1CCCC[C@@H]1C(=O)O` [Example 1.377] had a pIC50 of 5.00 to 6.00.

Take `COc1cc(-c2cccc(-c3cccc(NC(=O)c4ccccn4)c3C)c2C)cc(F)c1CNC(CO)(CO)CO` [Example 1.379]: the pIC50 was above 8.00.

Turning to `COc1cc(-c2cccc(-c3cccc(NC(=O)c4ccccn4)c3C)c2C)cc(F)c1CN1CCCC[C@H]1C(=O)O` [Example 1.380], the pIC50 is 6.00 to 8.00.

On to `COc1cc(-c2cccc(-c3cccc(NC(=O)c4ccccn4)c3C)c2C)cc(F)c1CN1CC(C(=O)O)C1` [Example 1.381], for which the pIC50 is above 8.00.

As for `COc1cc(-c2cccc(-c3cccc(NC(=O)c4ccccn4)c3C)c2C)cc(F)c1CNCC(=O)O` [Example 1.385], the pIC50 is 6.00 to 8.00.

Consider `COc1cc(-c2cccc(-c3cccc(NC(=O)c4cccc(N)n4)c3C)c2C)cc(F)c1CN` [Example 1.386], for which the pIC50 was 6.00 to 8.00.

The compound `COc1cc(-c2cccc(-c3cccc(NC(=O)c4ccccn4)c3C)c2C)cc(F)c1CN1CC(O)C1` [Example 1.388] had a pIC50 above 8.00.

`COc1cc(-c2cccc(-c3cccc(NC(=O)c4ccnc(N)c4)c3C)c2C)cc(F)c1CNCCO` [Example 1.389] gave a pIC50 of 5.00 to 6.00.

In the case of `COc1cc(-c2cccc(-c3cccc(NC(=O)c4ccc(N)nc4)c3C)c2C)cc(F)c1CNCCO` [Example 1.390], the pIC50 was 5.00 to 6.00.

The compound `COc1cc(-c2cccc(-c3cccc(NC(=O)N4CCNCC4)c3C)c2C)cc(F)c1CN` [Example 1.392] showed a pIC50 of 6.00 to 8.00.

As to `COc1cc(-c2cccc(-c3cccc(NC(=O)C4CCN(CCO)CC4)c3C)c2C)cc(F)c1CN` [Example 1.393], the pIC50 was 6.00 to 8.00.

`COc1cc(-c2cccc(-c3cccc(NC(=O)C4CCCNC4)c3C)c2C)cc(F)c1CN` (stereo not shown) [Example 1.394] gave a pIC50 of 5.00 to 6.00.

Consider `COc1cc(-c2cccc(-c3cccc(NC(=O)C4CCN(CCO)CC4)c3C)c2C)cc(F)c1CNCCO` [Example 1.395], for which the pIC50 is 6.00 to 8.00.

`COc1cc(-c2cccc(-c3cccc(NC(=O)c4ccccn4)c3C)c2C)cc(F)c1CNCCO` [Example 1.396] had a pIC50 above 8.00.

The compound `COc1cc(-c2cccc(-c3cccc(NC(=O)C4CCNCC4)c3C)c2C)cc(F)c1CNCCO` [Example 1.397] showed a pIC50 of 6.00 to 8.00.

Staying with this test, now noted: human PD-1/PD-L1 ELISA, plates coated with human PD-L1.
The compound `CNCc1c(F)cc(-c2cccc(-c3cccc(NC(=O)c4nc5c(s4)CN(CCO)CC5)c3F)c2C)cc1OC` [Example 1.398] had a pIC50 above 8.00.

In turn, `COc1cc(-c2cccc(-c3cccc(NC(=O)c4ccc(CNCCO)cn4)c3C)c2C)cc(F)c1CNCCS(=O)(=O)O` [Example 1.399] showed a pIC50 above 8.00.

`COc1cc(-c2cccc(-c3cccc(NC(=O)c4nc5c(s4)CN(CCO)CC5)c3F)c2C)cc(F)c1CNCCO` [Example 1.400] gave a pIC50 above 8.00.

`COc1cc(-c2cccc(-c3cccc(NC(=O)c4ccc(CNCCO)cn4)c3C)c2C)cc(F)c1CNCCCC(=O)O` [Example 1.401] had a pIC50 above 8.00.

In turn, `COc1cc(-c2cccc(-c3cccc(NC(=O)c4ccc(CN[C@@](C)(CO)C(=O)O)cn4)c3C)c2C)cc(F)c1CN[C@@](C)(CO)C(=O)O` [Example 1.402] gave a pIC50 above 8.00.

Consider `COc1cc(-c2cccc(-c3cccc(NC(=O)c4nc5c(s4)CNCC5)c3F)c2C)cc(F)c1CNCCCC(=O)O` [Example 1.403], for which the pIC50 is above 8.00.

`COc1cc(-c2cccc(-c3cccc(NC(=O)c4ccc(CNCCO)cn4)c3C)c2C)cc(F)c1CNCCO` [Example 1.404] had a pIC50 above 8.00.

The test is the same for the next values; noted with them: plate-coated human PD-L1, biotinylated Human PD-1, absorbance at 450 nm.
Compound `COc1c(CNC[C@@H]2CCC(=O)N2)ccc(-c2cccc(-c3cccc(NC(=O)c4cn(C)c(=O)n(C)c4=O)c3Cl)c2Cl)c1F` [Example 2.001] gave a pIC50 above 8.00.

`COc1cc(-c2cccc(-c3cccc(NC(=O)c4cn(C)c(=O)n(C)c4=O)c3Cl)c2Cl)cc(F)c1CN1CC2(CCNC2=O)C1` [Example 2.002] gave a pIC50 above 8.00.

The compound `COc1cc(-c2cccc(-c3cccc(NC(=O)c4cn(C)c(=O)n(C)c4=O)c3Cl)c2Cl)cc(F)c1CN1CCC[C@@H](C(=O)O)C1` [Example 2.003] gave a negative logarithm of the IC50 (pIC50) above 8.00.

Consider `COc1cc(-c2cccc(-c3cccc(NC(=O)c4cn(C)c(=O)n(C)c4=O)c3Cl)c2Cl)cc(F)c1CN1CCC(C(=O)O)CC1` [Example 2.004], for which the pIC50 was above 8.00.

Take `COc1cc(-c2cccc(-c3cccc(NC(=O)c4cn(C)c(=O)n(C)c4=O)c3Cl)c2Cl)cc(F)c1CN1CCC(C)(C(=O)O)CC1` [Example 2.005]: the pIC50 is above 8.00.

`COc1cc(-c2cccc(-c3cccc(NC(=O)c4cn(C)c(=O)n(C)c4=O)c3C)c2Cl)cc(F)c1CN1CCC2(CCNC2=O)CC1` [Example 2.006] gave a pIC50 of 6.00 to 8.00.

For `COc1cc(-c2cccc(-c3cccc(NC(=O)c4cn(C)c(=O)n(C)c4=O)c3C)c2Cl)cc(F)c1CN1CCC2(CCNC2=O)C1` (stereo not shown) [Example 2.007], the pIC50 was above 8.00.

Consider `COc1cc(-c2cccc(-c3cccc(NC(=O)c4cn(C)c(=O)n(C)c4=O)c3Cl)c2Cl)cc(F)c1CN1CC(C)(C(=O)O)C1` [Example 2.008], for which the negative logarithm of the IC50 (pIC50) is above 8.00.

Take `COc1cc(-c2cccc(-c3cccc(NC(=O)c4cn(C)c(=O)n(C)c4=O)c3Cl)c2Cl)cc(F)c1CN1CCC(C)(O)CC1` [Example 2.009]: the pIC50 was above 8.00.

Compound `COc1cc(-c2cccc(-c3cccc(NC(=O)c4cn(C)c(=O)n(C)c4=O)c3Cl)c2Cl)cc(F)c1CN1CC[C@@H](C(=O)O)C1` [Example 2.010] had a pIC50 above 8.00.

`COc1cc(-c2cccc(-c3cccc(NC(=O)c4cn(C)c(=O)n(C)c4=O)c3C)c2C)cc(F)c1CN1CC2(CCNC2=O)C1` [Example 2.011] showed a pIC50 above 8.00.

`COc1cc(-c2cccc(-c3cccc(NC(=O)c4cn(C)c(=O)n(C)c4=O)c3C)c2Cl)cc(F)c1CN1CC2(CCNC2=O)C1` [Example 2.012] had a pIC50 above 8.00.

In turn, `COc1cc(-c2cccc(-c3cccc(NC(=O)c4cn(C)c(=O)n(C)c4=O)c3C)c2Cl)cc(F)c1CN1CCC(C)(C(=O)O)CC1` [Example 2.013] had a pIC50 above 8.00.
